Results reported in patent US9937182B2, “Therapeutic strategies for the treatment of preeclampsia” (UNIVERSITY OF IOWA RESEARCH FOUNDATION, priority 2013, dated 2018).
Where “and” joins values, the source holds several entries; their conditions need not be identical. Equal entries are not always repeated.

Legend:
C57Bl/6J female mice [1] = experiment: Vasopressin infusion during pregnancy, tail-cuff blood pressure; format: in vivo; details: vasopressin 24 ng/hr s.c. compared to 2.4 ng/hr s.c., P=0.03
Experimental: Method: Wildtype C57Bl/6J female mice were chronically infused with varied doses of arginine vasopressin (Sigma-Aldrich), via subcutaneous osmotic minipumps (Alzet), for three days preceding mating, then through gestational day 16. Mice were first acclimated to the restraint devices used for recordings for one week (“week −3”) before data recordings began. Blood pressure was assessed daily for two weeks preceding minipump implantation, through gestational day 16. Blood pressure was measured using tail-cuff plethysmography (Visitech). On any given recording day, the mouse was restrained and lightly warmed throughout the (30 min) recording period. Thirty consecutive 1 min inflation/deflation cycles were performed and successful pressure determinations were averaged within recording period for each mouse. Data sets from individual days with fewer than 10 successful determinations were excluded from analyses. Daily blood pressure values were averaged within animal for each week for statistical comparisons.

[2] = system: wildtype female mice (C57Bl/6 background); experiment: Vasopressin infusion (24 ng/hr) throughout pregnancy, fetal and placental masses and resorption at GD18; format: in vivo; details: for Raw fetal mass (Fetus): individual fetuses; for Raw placental mass (Placenta): individual placentas
Experimental: Methods: Nine adult wildtype female mice were obtained from in-house breeding colonies that are based on the C57Bl/6 background strain. Three days before breeding, females were implanted with subcutaneous osmotic minipumps (Alzet) to continuously deliver arginine vasopressin (AVP, Sigma-Aldrich) at 24 ng/hr. Females were mated for two consecutive nights with wildtype male C57BL/6J males purchased from Jackson Laboratories. GD1 was defined based upon the presence of a vaginal sperm plug. On gestational day 18, female mice were sacrificed by CO2 asphyxiation, and fetuses and fetoplacental units were isolated by blunt dissection.

C57Bl/6J female mice [3] = experiment: Vasopressin infusion 0.24, 2.4 or 24 ng/hr during pregnancy, proteinuria and intrauterine growth restriction; format: in vivo; details: for fetal masses: dams infused with 24 ng/hr compared to 2.4 ng/hr vasopressin; for urine protein content: pregnant mice, GD17-GD18, vasopressin 0.24, 2.4, 24 ng/hr
Experimental: Method: Eighteen female C57BL/6J mice were obtained from the Jackson Laboratories. Subcutaneous osmotic minipumps (Alzet) were implanted to deliver vasopressin at 0.24, 2.4, or 24 ng/hr (six mice each group). After three days, mice were mated with wildtype C57BL/6J male mice for one night (thereby defining gestational day zero). On GD16, mice were placed into single-mouse metabolic cages (Nalgene) to collect urine for two consecutive nights. On GD18, mice were sacrificed to quantify and collect fetuses and placentas. Urine protein was assessed by commercially-available BCA assay (Pierce).

abdominal aorta = experiment: Abdominal aortic ring vascular reactivity (organ bath); format: cell-based, mice; details: contractile response
Experimental: Aortic Vascular Reactivity: Abdominal aortic rings were assessed for vascular reactivity as previously described (32). Briefly, mice were euthanized by overdose of pentobarbital (50 mg, i.p.), and the abdominal aorta was quickly removed and placed in Kreb's buffer containing (in mmol/L): 118.3 NaCl, 4.7 KCl, 1.2 MgSO4, 1.2 KH2PO4, 25 NaHCO3, 2.5 CaCl2 and 11 glucose. Vascular rings (4-5 mm in length) were suspended in oxygenated Kreb's buffer (95% O2/5% CO2) in organ baths at 37° C. and connected to a force transducer via steel hooks. Resting tension was adjusted to 0.5 grams over 45 minutes. Contractile responses were tested in response to AVP (10^−10-10^−6 mol/L), phenylephrine (PE, 10^−8-3×10^−5), endothelin-1 (ET-1, 10^−10-10^−7), prostaglandin F2α (PGF2α, 10^−7-10^−4), and angiotensin II (Ang II, 10^−10-10^−7). Following sub-maximal contraction with PGF2α (40-50% of max; 3×10^−6-6×10^−6), relaxation responses to acetylcholine (10^−8-3×10^−5) and sodium nitroprusside (10^−9-10^−5) were determined.
(§1) Statistics: Data were analyzed by ANOVA with repeated measures as appropriate. Post-hoc analyses were performed using Bonferroni multiple-comparisons procedures. EC50 and maximum response calculations were performed by fitting individual dose-response data sets to a four-parameter logistic function (Hillslope method); y=min+([…])/(1+(x/EC50)^Hillslope). All mRNA fold changes were calculated using the Livak method (54). All analytical comparisons were performed using SigmaStat/SigmaPlot (Systat). All data are presented as mean±sem.

[4] = system: 2°-branch mesenteric artery; experiment: Mesenteric artery vascular reactivity (pressurized myography); format: cell-based, mice
Experimental: Mesenteric Artery Vascular Reactivity: Secondary branches of mesenteric artery were dissected and placed in chilled oxygenated (21% O2, 5% CO2, and 74% N2) Kreb's buffer. A segment (˜1 mm long) of artery was transferred to a vessel chamber (DMT), cannulated with glass micropipettes and secured with silk ligatures. The artery was slowly pressurized to 40 mmHg without flow. After 30 min equilibration, vessel viability was tested by constriction response to 100 mM KCl. Vascular responses to PE (10-9-10-5 mol/L), AVP (10-12-10-7 mol/L), and ET-1 (10-11-10-8 mol/L) were then assessed. The artery was then superfused with calcium-free Krebs buffer containing 10-5 mol/L sodium nitroprusside and 2 mmol/L EGTA to maximally dilate the vessel. Internal and external diameters were measured at 75 mm Hg. Wall thickness, media/lumen ratio and cross sectional area (CSA) were calculated as previously described by Neves, et al. (62).
as §1

[5] = all six pregnancies, vasopressin 24 ng/hr, GD18
[6] = average of dam 200245-2 (HD4), vasopressin 24 ng/hr, GD18
[7] = average of dam 200245-4 (HD5), vasopressin 24 ng/hr, GD18
[8] = average of dam 200301-2 (HD2), vasopressin 24 ng/hr, GD18
[9] = average of dam 200301-4 (HD3), vasopressin 24 ng/hr, GD18
[10] = average of dam 200357-1 (HD6), vasopressin 24 ng/hr, GD18
[11] = average of dam 200372-3 (HD9), vasopressin 24 ng/hr, GD18
[12] = dam 200245-2 (HD4), vasopressin 24 ng/hr, GD18
[13] = dam 200245-4 (HD5), vasopressin 24 ng/hr, GD18
[14] = dam 200301-2 (HD2), vasopressin 24 ng/hr, GD18
[15] = dam 200301-4 (HD3), vasopressin 24 ng/hr, GD18
[16] = dam 200357-1 (HD6), vasopressin 24 ng/hr, GD18
[17] = dam 200372-3 (HD9), vasopressin 24 ng/hr, GD18

NC(=O)CC[C@@H]1NC(=O)[C@H](Cc2ccccc2)NC(=O)[C@H](Cc2ccc(O)cc2)NC(=O)[C@@H](N)CSSC[C@@H](C(=O)N2CCC[C@H]2C(=O)N[C@@H](CCCN=C(N)N)C(=O)NCC(N)=O)NC(=O)[C@H](CC(N)=O)NC1=O [Arginine vasopressin]
blood pressure, third week of pregnancy (gestational days 14-16) (C57Bl/6J female mice [1]): increased blood pressure
blood pressure, third week of pregnancy (gestational days 14-16) (C57Bl/6J female mice [1]; listed as AVP): late-pregnancy increase in blood pressure
Avg mass, Fetus [2, 5]: 0.4929 g
Avg mass, Placenta [2, 5]: 0.0628 g
Resorb, total count [2, 5]: 10
resorbed fetoplacental units [2, 5]: 17%
Avg mass, Fetus [2, 6]: 0.7741 g
Avg mass, Placenta [2, 6]: 0.0536 g
Avg mass, Fetus [2, 7]: 0.0371 g
Avg mass, Placenta [2, 7]: 0.0388 g
Avg mass, Fetus [2, 8]: 0.3741 g
Avg mass, Placenta [2, 8]: 0.0760 g
Avg mass, Fetus [2, 9]: 0.3054 g
Avg mass, Placenta [2, 9]: 0.0672 g
Avg mass, Fetus [2, 10]: 0.4660 g
Avg mass, Placenta [2, 10]: 0.0545 g
Avg mass, Fetus [2, 11]: 1.0077 g
Avg mass, Placenta [2, 11]: 0.0761 g
Raw fetal mass (Fetus) [2, 12]: 0.7964 g and 0.5962 g and 0.8258 g and 0.8183 g and 0.8336 g
Raw fetal mass (Fetus) [2, 13]: 0.0154 g and 0.0699 g and 0.0261 g
Raw fetal mass (Fetus) [2, 14]: 0.3756 g and 0.3352 g and 0.3805 g and 0.3954 g and 0.3094 g and 0.3777 g and 0.4078 g and 0.3880 g and 0.3971 g
Raw fetal mass (Fetus) [2, 15]: 0.2866 g and 0.2599 g and 0.3328 g and 0.3609 g and 0.3085 g and 0.3087 g and 0.2955 g and 0.3356 g and 0.3129 g and 0.3034 g and 0.3086 g and 0.2516 g
Raw fetal mass (Fetus) [2, 16]: 0.4865 g and 0.4962 g (2×) and 0.4780 g and 0.4092 g and 0.4543 g and 0.5241 g and 0.4999 g and 0.4399 g and 0.4501 g and 0.5057 g and 0.3521 g
Raw fetal mass (Fetus) [2, 17]: 0.9287 g and 1.0395 g and 1.1359 g and 1.0723 g and 1.0064 g and 0.9679 g and 0.9034 g
Raw placental mass (Placenta) [2, 12]: 0.0679 g and 0.0629 g and 0.0860 g and 0.0898 g and 0.0770 g and 0.0070 g and 0.0157 g and 0.0324 g and 0.0433 g
Raw placental mass (Placenta) [2, 13]: 0.0494 g and 0.0410 g and 0.0261 g and <0.01 g (5×)
Raw placental mass (Placenta) [2, 14]: 0.0687 g and 0.0810 g and 0.0828 g and 0.0796 g and 0.0638 g and 0.0840 g and 0.0936 g and 0.0477 g and 0.0827 g
Raw placental mass (Placenta) [2, 15]: 0.0315 g and 0.0762 g and 0.0747 g and 0.0876 g and 0.0710 g and 0.0789 g and 0.0620 g and 0.0687 g and 0.0669 g and 0.0714 g and 0.0640 g and 0.0529 g
Raw placental mass (Placenta) [2, 16]: 0.0599 g and 0.0709 g and 0.0663 g and 0.0509 g and 0.0480 g and 0.0648 g and 0.0767 g and 0.0678 g and 0.0426 g and 0.0471 g and 0.0569 g and 0.0499 g and 0.0067 g
Raw placental mass (Placenta) [2, 17]: 0.0725 g and 0.0866 g and 0.0753 g and 0.0810 g and 0.0706 g and 0.0702 g and 0.0766 g
fetus mass across all six pregnancies ([2]; n=48, vasopressin 24 ng/hr, GD18, P<0.0001 against 0.90 gram historical control): 0.4929±0.0397 gram/fetus
female mice that became pregnant (of nine) ([2]; vasopressin 24 ng/hr, two nights mating): Six
mice that became pregnant (of six) (C57Bl/6J female mice [3]; 0.24 ng/hr infusion): two
mice that became pregnant (of six) (C57Bl/6J female mice [3]; 2.4 ng/hr infusion): five
mice that became pregnant (of six) (C57Bl/6J female mice [3]; 24 ng/hr infusion): three
preterm labor (C57Bl/6J female mice [3]; 24 ng/hr vasopressin infusion group, gestational day 17): one pregnant mouse exhibited preterm labor
fetal masses (C57Bl/6J female mice [3]; GD18, listed as Vasopressin): dose-dependent intrauterine growth restriction
fetal masses (C57Bl/6J female mice [3]; GD18, listed as vasopressin): significantly suppressed
urine protein content (C57Bl/6J female mice [3]; listed as Vasopressin): dose-dependent proteinuria
urine protein content (C57Bl/6J female mice [3]; listed as vasopressin): elevated in a dose-dependent manner
placental masses (C57Bl/6J female mice [3]; vasopressin 0.24, 2.4, 24 ng/hr, GD18): indistinguishable across treatment groups
Maximum Response (abdominal aorta; male Control mice): 0.29 ± 0.03 g
Maximum Response (abdominal aorta; male sRA mice): 0.12 ± 0.01 g
Maximum Response ([4]; male Control mice): 52.5 ± 3.2%
Maximum Response ([4]; male sRA mice): 17.3 ± 6.5 %
